Test results reported in US9593305B2, “Differentiation of pluripotent stem cells” (Janssen Biotech, Inc., priority 2008, dated 2017).

Tested on: H1 human embryonic stem cells
Assay: Compounds and growth factors with low dose activin A (Example 9, Table 9)
Type: cell-based
Procedure: Clusters of H1 human embryonic stem cells were grown on reduced growth factor […]™ (Invitrogen; Cat #356231)-coated tissue culture plastic. Cells were passaged using collagenase (Invitrogen; Cat #17104-019) treatment and gentle scraping, washed to remove residual enzyme, and plated with even dispersal at a ratio of 1:1 (surface area) on reduced growth factor […]™-coated 96-well black plates (Packard ViewPlates; PerkinElmer; Cat #6005182) using volumes of 100 μl/well. Cells were allowed to attach as clusters and then recover log phase growth over a 1 to 3 day period, feeding daily with MEF conditioned medium supplemented with 8 ng/ml bFGF (R&D Systems; Cat #233-FB). Plates were maintained at 37° C., 5% CO2 in a humidified box throughout the duration of assay.
Stocks of growth factors purchased from R&D Systems were EGF (Cat #236-EG), FGF4 (Cat #235-F4), PDGF-A (Cat #221-AA), PDGF-D (Cat #1159-SB), PDGF-A/B (Cat #222-AB), VEGF (Cat #293-VE), and GDF-8 (Cat #788-08). Activin A was purchased from PeproTech (Cat #). Muscimol was purchased from Tocris (Cat #0289). All growth factors were solubilized in PBS with 0.1% BSA (Sigma; Cat #A7888) and stored frozen at −80° C. Muscimol was solubilized in 100% DMSO (Sigma; Cat #D2650) and stored frozen at −80° C. The compounds were available as 5 mM stocks in 96-well plate format, solubilized in 100% DMSO and stored at −80° C. The compounds were further diluted to an intermediate concentration of 0.2 mM in 50 mM HEPES (Invitrogen; Cat #15630-080), 20% DMSO and stored at 4° C. All growth factors and inhibitors were prepared in a deep well, 96-well polypropylene plate, diluted to 5× intermediate stocks in DMEM:F12 base medium at the beginning of assay and stored at 4° C.
A secondary screening assay was conducted, testing in triplicate and feeding on alternate days over the four-day assay timeframe. Assays were initiated by aspirating culture medium from each well followed by three washes in PBS to remove residual growth factors and serum. Test volumes of 80 μl per well were added back containing DMEM:F12 base medium (Invitrogen; Cat #11330-032) supplemented with 0.625% FCS (HyClone; Cat #SH30070.03), 25 ng/ml Wnt3a (R&D Systems), 12.5 ng/ml activin A, and 3.125 μM compound plus 20 μl 5× stock of growth factor or small molecule to yield a final concentration of 0.5% FCS, 20 ng/ml Wnt3a, 10 ng/ml activin A, and 2.5 μM compound. All remaining growth factors were tested at a final assay concentration of 50 ng/ml (EGF, FGF4, PDGF-A, PDGF-A/B, VEGF), with the exception of GDF-8 used at 25 ng/ml. Final assay concentration of muscimol was 20 μM. Positive control wells (100 μl/well) contained the same base medium supplemented with 0.5% FCS, 20 ng/ml Wnt3a and 10 ng/ml (low dose) or 100 ng/ml (high dose) activin A. Negative control wells (100 μl/well) contained the same base medium with 0.5% FCS and 20 ng/ml Wnt3a, omitting activin A.
Positive control wells (100 μl/well) contained the same base medium supplemented with 2% FCS and 10 ng/ml or 100 ng/ml activin A, omitting Wnt3a. Negative control wells (100 μl/well) contained the same base medium with 2% FCS, omitting both activin A and Wnt3a.
At the conclusion of four-days of culture, assay plates were washed twice with PBS, fixed with 4% paraformaldehyde (Alexis Biochemical; Cat #ALX-350-011) at room temperature for 20 minutes, then washed three times with PBS and permeabilized with 0.5% Triton X-100 (Sigma; Cat #T8760-2) for 20 minutes at room temperature. Cells were washed again three times with PBS and blocked with 4% chicken serum (Invitrogen; Cat #16110082) in PBS for 30 minutes at room temperature. Primary antibody (goat anti-human SOX17; R&D Systems; cat #AF1924) was diluted 1:100 in 4% chicken serum and added to each well for one hour at room temperature. […]

[1] = 10 ng/ml AA + compound + EGF + FGF4 + PDGF-A + Muscimol + Wnt3a
[2] = 10 ng/ml AA + compound + EGF + FGF4 + PDGF-A + VEGF + PDGF-D + Muscimol + GDF8 + Wnt3a
[3] = 10 ng/ml AA + compound + EGF + FGF4 + PDGF-AB + VEGF + Wnt3a
[4] = 10 ng/ml AA + compound + EGF + FGF4 + PDGF-AB + Wnt3a
[5] = 10 ng/ml AA + compound + EGF + FGF4 + Wnt3a
[6] = 10 ng/ml AA + compound + EGF + Wnt3a
[7] = 10 ng/ml AA + compound + FGF4 + Wnt3a

SMILES: O=C1NCCCc2cncc(c2)-c2ncnc(n2)Nc2cccc(c2)CN2CCC1CC2 [Compound 22, 1,8,10,12,16,22,30-Heptaazapentacyclo[22.2.2.1-3,7˜0.1˜9,13˜1-14,18˜]hentriaconta-3(31), 4,6,9(30), 10,12,14(29), 15,17-nonaen-23-one]
- Cell Number, % of positive control [1]: 132.10 % of positive control
- Cell Number, Average Total Cell Number [1]: 8100
- Sox17 Expression, % of positive control [1]: 38.65 % of positive control
- Sox17 Expression, Average Total Intensity [1]: 4.42E+07
- Cell Number, % of positive control [2]: 139.53 % of positive control
- Cell Number, Average Total Cell Number [2]: 8556
- Sox17 Expression, % of positive control [2]: 76.82 % of positive control
- Sox17 Expression, Average Total Intensity [2]: 8.78E+07
- Cell Number, % of positive control [3]: 124.87 % of positive control
- Cell Number, Average Total Cell Number [3]: 7657
- Sox17 Expression, % of positive control [3]: 41.09 % of positive control
- Sox17 Expression, Average Total Intensity [3]: 4.70E+07
- Cell Number, % of positive control [4]: 130.06 % of positive control
- Cell Number, Average Total Cell Number [4]: 7975
- Sox17 Expression, % of positive control [4]: 30.03 % of positive control
- Sox17 Expression, Average Total Intensity [4]: 3.43E+07
- Cell Number, % of positive control [5]: 159.83 % of positive control
- Cell Number, Average Total Cell Number [5]: 9800
- Sox17 Expression, % of positive control [5]: 40.13 % of positive control
- Sox17 Expression, Average Total Intensity [5]: 4.59E+07
- Cell Number, % of positive control [6]: 81.55 % of positive control
- Cell Number, Average Total Cell Number [6]: 5001
- Sox17 Expression, % of positive control [6]: 24.45 % of positive control
- Sox17 Expression, Average Total Intensity [6]: 2.80E+07
- Cell Number, % of positive control [7]: 105.84 % of positive control
- Cell Number, Average Total Cell Number [7]: 6490
- Sox17 Expression, % of positive control [7]: 37.43 % of positive control
- Sox17 Expression, Average Total Intensity [7]: 4.28E+07
- Cell Number, % of positive control (10 ng/ml AA + compound + Wnt3a): 74.09 % of positive control
- Cell Number, Average Total Cell Number (10 ng/ml AA + compound + Wnt3a): 4543
- Sox17 Expression, % of positive control (10 ng/ml AA + compound + Wnt3a): 26.65 % of positive control
- Sox17 Expression, Average Total Intensity (10 ng/ml AA + compound + Wnt3a): 3.05E+07

SMILES: CCN1CCCc2cccc(c2)-c2ncnc(n2)Nc2cccc(c2)CCNC(=O)C1 [Compound 29, 18-Ethyl-3,5,7,15,18,28-hexaazatetracyclo[20.3.1.1˜2,6˜0.1˜8,12˜]octacosa-1(26), 2(28), 3,5,8(27), 9,11,22,24-nonaen-16-one]
- Cell Number, % of positive control [1]: 76.26 % of positive control
- Cell Number, Average Total Cell Number [1]: 4676
- Sox17 Expression, % of positive control [1]: 21.11 % of positive control
- Sox17 Expression, Average Total Intensity [1]: 2.41E+07
- Cell Number, % of positive control [2]: 44.63 % of positive control
- Cell Number, Average Total Cell Number [2]: 2737
- Sox17 Expression, % of positive control [2]: 21.10 % of positive control
- Sox17 Expression, Average Total Intensity [2]: 2.41E+07
- Cell Number, % of positive control [3]: 37.23 % of positive control
- Cell Number, Average Total Cell Number [3]: 2283
- Sox17 Expression, % of positive control [3]: 4.88 % of positive control
- Sox17 Expression, Average Total Intensity [3]: 5.59E+06
- Cell Number, % of positive control [4]: 64.65 % of positive control
- Cell Number, Average Total Cell Number [4]: 3964
- Sox17 Expression, % of positive control [4]: 19.89 % of positive control
- Sox17 Expression, Average Total Intensity [4]: 2.27E+07
- Cell Number, % of positive control [5]: 28.31 % of positive control
- Cell Number, Average Total Cell Number [5]: 1736
- Sox17 Expression, % of positive control [5]: 1.73 % of positive control
- Sox17 Expression, Average Total Intensity [5]: 1.98E+06
- Cell Number, % of positive control [6]: 5.96 % of positive control
- Cell Number, Average Total Cell Number [6]: 365
- Sox17 Expression, % of positive control [6]: −4.25 % of positive control
- Sox17 Expression, Average Total Intensity [6]: −4.86E+06
- Cell Number, % of positive control [7]: 34.89 % of positive control
- Cell Number, Average Total Cell Number [7]: 2139
- Sox17 Expression, % of positive control [7]: 6.10 % of positive control
- Sox17 Expression, Average Total Intensity [7]: 6.98E+06
- Cell Number, % of positive control (10 ng/ml AA + compound + Wnt3a): 34.09 % of positive control
- Cell Number, Average Total Cell Number (10 ng/ml AA + compound + Wnt3a): 2090
- Sox17 Expression, % of positive control (10 ng/ml AA + compound + Wnt3a): 4.28 % of positive control
- Sox17 Expression, Average Total Intensity (10 ng/ml AA + compound + Wnt3a): 4.89E+06

SMILES: O=C1CCN2CCN(CC2)Cc2cc(Cl)cc(c2)Nc2ncnc(n2)-c2cncc(c2)CCCN1 [Compound 34, 5-Chloro-1,8,10,12,16,22,26,32-octaazapentacyclo[24.2.2.1˜3.7˜0.1˜9,13˜0.1˜14.18˜]tritriaconta-3(33), 4,6,9(32), 10,12,14(31), 15,17-nonaen-23-one]
- Cell Number, % of positive control [1]: 233.85 % of positive control
- Cell Number, Average Total Cell Number [1]: 17890
- Sox17 Expression, % of positive control [1]: 258.30 % of positive control
- Sox17 Expression, Average Total Intensity [1]: 2.88E+08
- Cell Number, % of positive control [2]: 240.02 % of positive control
- Cell Number, Average Total Cell Number [2]: 18362
- Sox17 Expression, % of positive control [2]: 309.74 % of positive control
- Sox17 Expression, Average Total Intensity [2]: 3.45E+08
- Cell Number, % of positive control [3]: 203.58 % of positive control
- Cell Number, Average Total Cell Number [3]: 15574
- Sox17 Expression, % of positive control [3]: 232.70 % of positive control
- Sox17 Expression, Average Total Intensity [3]: 2.59E+08
- Cell Number, % of positive control [4]: 233.65 % of positive control
- Cell Number, Average Total Cell Number [4]: 17875
- Sox17 Expression, % of positive control [4]: 241.07 % of positive control
- Sox17 Expression, Average Total Intensity [4]: 2.68E+08
- Cell Number, % of positive control [5]: 185.07 % of positive control
- Cell Number, Average Total Cell Number [5]: 14158
- Sox17 Expression, % of positive control [5]: 215.35 % of positive control
- Sox17 Expression, Average Total Intensity [5]: 2.40E+08
- Cell Number, % of positive control [6]: 189.89 % of positive control
- Cell Number, Average Total Cell Number [6]: 14527
- Sox17 Expression, % of positive control [6]: 204.84 % of positive control
- Sox17 Expression, Average Total Intensity [6]: 2.28E+08
- Cell Number, % of positive control [7]: 174.15 % of positive control
- Cell Number, Average Total Cell Number [7]: 13323
- Sox17 Expression, % of positive control [7]: 196.86 % of positive control
- Sox17 Expression, Average Total Intensity [7]: 2.19E+08
- Cell Number, % of positive control (10 ng/ml AA + compound + Wnt3a): 46.91 % of positive control
- Cell Number, Average Total Cell Number (10 ng/ml AA + compound + Wnt3a): 3589
- Sox17 Expression, % of positive control (10 ng/ml AA + compound + Wnt3a): 63.08 % of positive control
- Sox17 Expression, Average Total Intensity (10 ng/ml AA + compound + Wnt3a): 7.02E+07
